Assay results from ChEMBL document CHEMBL4483862, “Open-source discovery of chemical leads for next-generation chemoprotective antimalarials” (2018).

Tested on: Plasmodium berghei
Experiment: Luciferase/luciferin-expressing antifolate-resistant parasites were used to infect a culture of HepG2 cells that were pre-incubated with compounds. Infected hepatocytes emit light due to the luciferase reaction. Assay results are presented as the percent inhibition of light emission compared to control. […]
Assay type: functional
Settings: sporozoite; for IC90: read-out: LUCIFERASE INFECTION ASSAY - IC90

## N=C(N)N/N=C/c1ccc(Cl)cc1Cl
HEPG2TOX_HILL_SLOPE 3.43, HEPG2TOX_R_SQUARED 0.626, PBLUC_HILL_SLOPE 2.34, PBLUC_R_SQUARED 0.812, read-out: LUCIFERASE INFECTION ASSAY - IC50
  IC50: 2.27 µM
  IC90: 5.8 µM

## COc1ccc(OS(=O)(=O)c2sc(Br)cc2Br)cc1
HEPG2TOX_HILL_SLOPE 3.4, HEPG2TOX_R_SQUARED 0.9, PBLUC_HILL_SLOPE 10.6, PBLUC_R_SQUARED 0.653, read-out: LUCIFERASE INFECTION ASSAY - IC50
  IC50: 2.64 µM
  IC90: 3.26 µM

## O=C(N/N=C(\Cc1ncc[nH]1)c1ccccc1)c1ccncc1
HEPG2TOX_HILL_SLOPE 3.38, HEPG2TOX_R_SQUARED 0.998, PBLUC_HILL_SLOPE 17.1, PBLUC_R_SQUARED 0.54, read-out: LUCIFERASE INFECTION ASSAY - IC50
  IC50: 3.31 µM
  IC90: 3.77 µM

## CCCOc1ccc(/C=N/NC(=S)Nc2ccccc2[N+](=O)[O-])c(O)c1
HEPG2TOX_HILL_SLOPE 3.34, HEPG2TOX_R_SQUARED 0.913, PBLUC_HILL_SLOPE 0.962, PBLUC_R_SQUARED 0.919, read-out: LUCIFERASE INFECTION ASSAY - IC50
  IC50: 0.102 µM
  IC90: 1 µM

## Cc1ccc2[nH]c3c(c2c1)CCCC3N (stereo not given)
HEPG2TOX_HILL_SLOPE 3.36, HEPG2TOX_R_SQUARED 0.51, PBLUC_HILL_SLOPE 2.39, PBLUC_R_SQUARED 0.343, read-out: LUCIFERASE INFECTION ASSAY - IC50
  IC50: 4.17 µM
  IC90: 10.5 µM

## NC(=O)c1cccc(-c2ccc3ncc(-c4cccc(O)c4)n3n2)c1
HEPG2TOX_HILL_SLOPE 3.39, HEPG2TOX_R_SQUARED 0.986, PBLUC_HILL_SLOPE 6.74, PBLUC_R_SQUARED 0.592, read-out: LUCIFERASE INFECTION ASSAY - IC50
  IC50: 5.57 µM
  IC90: 7.72 µM

## Cn1c(C(C#N)C(=O)c2cc(-c3ccccc3)nc3ccccc23)nc2ccccc21 (stereo not given)
HEPG2TOX_HILL_SLOPE 3.46, HEPG2TOX_R_SQUARED 0.527, PBLUC_HILL_SLOPE 3.86, PBLUC_R_SQUARED 0.794, read-out: LUCIFERASE INFECTION ASSAY - IC50
  IC50: 4.22 µM
  IC90: 7.46 µM

## COc1cc(NC(=O)Nc2cc(Cl)cc(Cl)c2)cc(C(F)(F)F)c1
HEPG2TOX_HILL_SLOPE 3.42, HEPG2TOX_R_SQUARED 0.986, PBLUC_HILL_SLOPE 0.84, PBLUC_R_SQUARED 0.7, read-out: LUCIFERASE INFECTION ASSAY - IC50
  IC50: 0.0547 µM
  IC90: 0.748 µM

## Cc1csc(NC(=O)Nc2cc(C(F)(F)F)cc(C(F)(F)F)c2)c1Cl
HEPG2TOX_HILL_SLOPE 3.35, HEPG2TOX_R_SQUARED 0.976, PBLUC_HILL_SLOPE 39.1, PBLUC_R_SQUARED 0.116, read-out: LUCIFERASE INFECTION ASSAY - IC50
  IC50: 2.47 µM
  IC90: 2.61 µM

## COc1cc(-c2nc3ccc(NC(=O)Nc4cccc(C(C)=O)c4)cn3n2)cc(OC)c1OC
HEPG2TOX_HILL_SLOPE 3.38, HEPG2TOX_R_SQUARED 0.754, PBLUC_HILL_SLOPE 9.64, PBLUC_R_SQUARED 0.711, read-out: LUCIFERASE INFECTION ASSAY - IC50
  IC50: 1.21 µM
  IC90: 1.53 µM

## CN(Cc1ccc2c(c1)OCO2)c1cnn(-c2nc3ccccc3[nH]2)c(=O)c1Cl
HEPG2TOX_HILL_SLOPE 3.37, 11.7, HEPG2TOX_R_SQUARED 0.995, 0.503, PBLUC_HILL_SLOPE 3.37, 1.13, PBLUC_R_SQUARED 0.633, 0.779, read-out: LUCIFERASE INFECTION ASSAY - IC50
  IC50: 0.948 µM
  IC90: 3.94 µM

## c1ccc(C[n+]2ccc(-c3ncc(-c4ccc5ccccc5c4)o3)cc2)cc1
HEPG2TOX_HILL_SLOPE 3.46, HEPG2TOX_R_SQUARED 0.77, PBLUC_HILL_SLOPE 12.4, 9.50, PBLUC_R_SQUARED 0.642, 0.816, read-out: LUCIFERASE INFECTION ASSAY - IC50
  IC50: 3.38 µM
  IC90: 4.15 µM

## O=C(Cn1cnc2c(cnn2-c2ccccc2)c1=O)c1c[nH]c2ccccc12
HEPG2TOX_HILL_SLOPE 3.41, HEPG2TOX_R_SQUARED 0.825, PBLUC_HILL_SLOPE 1.56, PBLUC_R_SQUARED 0.738, read-out: LUCIFERASE INFECTION ASSAY - IC50
  IC50: 2.81 µM
  IC90: > 10 µM

## CCN(c1ccccc1)S(=O)(=O)c1cc(NC(=O)NC23CC4(C)CC(C)(CC(C)(C4)C2)C3)ccc1Cl
HEPG2TOX_HILL_SLOPE 3.39, HEPG2TOX_R_SQUARED 0.973, PBLUC_HILL_SLOPE 5.7, PBLUC_R_SQUARED 0.283, read-out: LUCIFERASE INFECTION ASSAY - IC50
  IC50: 4.28 µM
  IC90: 6.3 µM

## O=c1c(-c2cccc(Cl)c2)c[nH]n1-c1cccc(C(F)(F)F)c1
HEPG2TOX_HILL_SLOPE 3.35, HEPG2TOX_R_SQUARED 0.846, PBLUC_HILL_SLOPE 3.63, PBLUC_R_SQUARED 0.619, read-out: LUCIFERASE INFECTION ASSAY - IC50
  IC50: 5.69 µM
  IC90: > 9.74 µM

## CCn1c2ccccc2c2cc(NC(=O)c3ccncc3)ccc21
HEPG2TOX_HILL_SLOPE 3.45, HEPG2TOX_R_SQUARED 0.806, PBLUC_HILL_SLOPE 11.3, PBLUC_R_SQUARED 0.493, read-out: LUCIFERASE INFECTION ASSAY - IC50
  IC50: 3.14 µM
  IC90: 3.82 µM

## O=C(Nc1cccc2ccccc12)N1CCN(c2ncccc2C(F)(F)F)CC1
HEPG2TOX_HILL_SLOPE 3.44, HEPG2TOX_R_SQUARED 0.402, PBLUC_HILL_SLOPE 82.3, PBLUC_R_SQUARED 0.563, read-out: LUCIFERASE INFECTION ASSAY - IC50
  IC50: 0.102 µM
  IC90: 0.105 µM

## N#Cc1ccc(-c2ccc3nnc(-c4cccc(C(F)(F)F)c4)n3c2)cc1
HEPG2TOX_HILL_SLOPE 3.44, HEPG2TOX_R_SQUARED 0.706, PBLUC_HILL_SLOPE 4.37, PBLUC_R_SQUARED 0.179, read-out: LUCIFERASE INFECTION ASSAY - IC50
  IC50: 4.41 µM
  IC90: 7.29 µM

## CC1Cc2cc(S(N)(=O)=O)ccc2N1CCCOc1ccc(F)cc1 (stereo not given)
HEPG2TOX_HILL_SLOPE 3.41, HEPG2TOX_R_SQUARED 0.506, PBLUC_HILL_SLOPE 2.13, PBLUC_R_SQUARED 0.616, read-out: LUCIFERASE INFECTION ASSAY - IC50
  IC50: 6.18 µM
  IC90: > 10 µM

## CCc1ccc(S(=O)(=O)N2[C@@H]3CC[C@@H](C3)[C@H]2c2nc3c(OC(C)C)cccc3[nH]2)cc1
HEPG2TOX_HILL_SLOPE 3.46, HEPG2TOX_R_SQUARED 0.87, PBLUC_HILL_SLOPE 16.2, PBLUC_R_SQUARED 0.535, read-out: LUCIFERASE INFECTION ASSAY - IC50
  IC50: 9.38 µM
  IC90: > 10 µM

## COc1cc(NCc2cc(Cl)cc(Cl)c2OC)ccc1NC(=O)C(C)C
HEPG2TOX_HILL_SLOPE 3.35, HEPG2TOX_R_SQUARED 0.946, PBLUC_HILL_SLOPE 1.13, PBLUC_R_SQUARED 0.756, read-out: LUCIFERASE INFECTION ASSAY - IC50
  IC50: 1.15 µM
  IC90: 8.02 µM

## COc1ccccc1-c1cc(-c2ccccc2N(C)C)cnc1N
HEPG2TOX_HILL_SLOPE 3.39, HEPG2TOX_R_SQUARED 0.524, PBLUC_HILL_SLOPE 1.95, PBLUC_R_SQUARED 0.212, read-out: LUCIFERASE INFECTION ASSAY - IC50
  IC50: 5.47 µM
  IC90: > 10.3 µM

## COc1ccc(-c2cnc3cnc(-c4ccsc4)cn23)cc1
HEPG2TOX_HILL_SLOPE 3.46, HEPG2TOX_R_SQUARED 0.703, PBLUC_HILL_SLOPE 8.9, PBLUC_R_SQUARED 0.737, read-out: LUCIFERASE INFECTION ASSAY - IC50
  IC50: 3.76 µM
  IC90: 4.82 µM

## Cc1ccc2nc(NC(=O)c3ccc(Cl)cc3)c(C(=O)NC3CCCC3)n2c1
HEPG2TOX_HILL_SLOPE 3.44, HEPG2TOX_R_SQUARED 0.175, PBLUC_HILL_SLOPE 15.5, PBLUC_R_SQUARED 0.331, read-out: LUCIFERASE INFECTION ASSAY - IC50
  IC50: 2.68 µM
  IC90: 3.09 µM

## CCOC(=O)c1cc(NC(=O)Nc2ccc(Cl)c(Cl)c2)ccc1Oc1cncc(Cl)c1
HEPG2TOX_HILL_SLOPE 3.45, HEPG2TOX_R_SQUARED 0.989, PBLUC_HILL_SLOPE 3.28, PBLUC_R_SQUARED 0.474, read-out: LUCIFERASE INFECTION ASSAY - IC50
  IC50: 2.14 µM
  IC90: 4.18 µM

## O=C(Nc1ccc(Cl)cc1)c1cc(-c2ccccc2)c(C(F)(F)F)s1
HEPG2TOX_HILL_SLOPE 3.44, HEPG2TOX_R_SQUARED 0.918, PBLUC_HILL_SLOPE 6.48, PBLUC_R_SQUARED 0.174, read-out: LUCIFERASE INFECTION ASSAY - IC50
  IC50: 4.32 µM
  IC90: 6.06 µM

## O=C(Nc1cc(Cl)ccc1OC(=O)c1ccc(C(F)(F)F)cc1)c1ccc(C(F)(F)F)cc1
HEPG2TOX_HILL_SLOPE 3.38, HEPG2TOX_R_SQUARED 0.98, PBLUC_HILL_SLOPE 2.51, PBLUC_R_SQUARED 0.591, read-out: LUCIFERASE INFECTION ASSAY - IC50
  IC50: 1.21 µM
  IC90: 2.9 µM

## CS(=O)(=O)c1ncc(Cl)c(C(=O)C(C#N)c2ccc3ccccc3n2)n1 (stereo not given)
HEPG2TOX_HILL_SLOPE 3.45, HEPG2TOX_R_SQUARED 0.508, PBLUC_HILL_SLOPE 8.67, PBLUC_R_SQUARED 0.634, read-out: LUCIFERASE INFECTION ASSAY - IC50
  IC50: 3.78 µM
  IC90: 4.88 µM

## O=C(NCc1cc(Cl)c2c(c1)OCCCO2)c1cnn(Cc2ccccc2)c1
HEPG2TOX_HILL_SLOPE 3.36, HEPG2TOX_R_SQUARED 0.962, PBLUC_HILL_SLOPE 1.54, PBLUC_R_SQUARED 0.197, read-out: LUCIFERASE INFECTION ASSAY - IC50
  IC50: 9.57 µM
  IC90: > 10 µM

## CC(C)[C@H](Nc1ccc(C(F)(F)F)cc1Cl)C(=O)Nc1ccc(C#N)cc1
HEPG2TOX_HILL_SLOPE 3.39, HEPG2TOX_R_SQUARED 0.849, PBLUC_HILL_SLOPE 25.1, 22.4, PBLUC_R_SQUARED 0.626, 0.774, read-out: LUCIFERASE INFECTION ASSAY - IC50
  IC50: 2.85 µM
  IC90: 3.14 µM
